{"source": "paper PMC7927403", "about": "“Structure‐based identification of dual ligands at the A2AR and PDE10A with anti‐proliferative effects in lung cancer cell‐lines” (Journal of Cheminformatics, 2021)", "key": {"PDE10A": {"biological_target": "T1, PDE10A (Homo sapiens, UniProt Q9Y233)", "T1 construct": "purchased BPS Bioscience, San Diego, CA", "T1 sequence (Q9Y233 1-779 isoform Q9Y233-1)": "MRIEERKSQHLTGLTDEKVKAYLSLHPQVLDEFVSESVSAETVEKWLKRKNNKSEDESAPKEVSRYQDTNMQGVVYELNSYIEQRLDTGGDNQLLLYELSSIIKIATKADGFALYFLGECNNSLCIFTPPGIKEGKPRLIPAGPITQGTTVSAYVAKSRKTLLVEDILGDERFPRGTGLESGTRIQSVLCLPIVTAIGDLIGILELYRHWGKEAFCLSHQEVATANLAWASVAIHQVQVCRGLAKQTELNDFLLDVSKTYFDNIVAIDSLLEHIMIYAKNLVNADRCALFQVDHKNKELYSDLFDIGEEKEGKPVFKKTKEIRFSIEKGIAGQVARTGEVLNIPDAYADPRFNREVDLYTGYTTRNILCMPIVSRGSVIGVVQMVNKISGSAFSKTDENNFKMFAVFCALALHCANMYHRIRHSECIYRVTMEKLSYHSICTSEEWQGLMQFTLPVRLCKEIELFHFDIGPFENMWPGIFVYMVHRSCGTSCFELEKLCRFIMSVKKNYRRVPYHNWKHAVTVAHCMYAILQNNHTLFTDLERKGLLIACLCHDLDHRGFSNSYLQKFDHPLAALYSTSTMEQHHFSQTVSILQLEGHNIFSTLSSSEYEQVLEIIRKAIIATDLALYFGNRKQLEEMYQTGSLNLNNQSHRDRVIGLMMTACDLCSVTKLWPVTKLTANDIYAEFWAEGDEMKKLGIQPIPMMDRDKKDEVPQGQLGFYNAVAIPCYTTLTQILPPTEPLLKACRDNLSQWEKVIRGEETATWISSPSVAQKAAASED", "assay": "PDE10A inhibition assay (BPS Bioscience PDE10A assay kit)", "format": "biochemical", "settings": "concentration-response at PDE10A", "excerpt": "400 pg of purified PDE10A was used per reaction, and the plates were read using a TECAN infinite M200."}, "H1792 cells [1]": {"tested_on": "H1792 cells", "assay": "cAMP accumulation in H1792 cells", "format": "cell-based", "settings": "Homo sapiens", "excerpt": "(§1) Fig. 7 Lung squamous cell carcinoma and adenocarcinoma cells display increasing sensitivity to compounds 1, 3–5 in terms of proliferation, dependent upon combined A2AR and PDE10A expression. […] Data represented as a percentage of the cell number present after treatment with 1 % DMSO, ± SEM of 4–8 replicates. (B) Correlation plot for pEC50 of each compounds ability to stimulate cAMP production vs. its pIC50 for inhibiting proliferation. Data represented ± SEM. (C) Proliferation factor (pIC50 x span anti-proliferative Additional file 1: Table S5) calculated for 1, 3–6, CGS21680s and forskolin at LK-2, H520, H1792 and H1563 cells. Bars represent the mean Imax ± SEM, whilst individual data points are shown as a scatter plot."}, "H1792 cells [2]": {"tested_on": "H1792 cells", "assay": "Proliferation assay (CCK-8) in H1792 cells", "format": "cell-based, human", "settings": "for Imax anti-proliferative effect: H1792, 10 μM agonist relative to 1% DMSO treatment; for IC50: Homo sapiens, NCI-H1792, H1792, 72 hours, read-out: pIC50 anti-proliferative effect (converted)", "experimental": "(§2) To test the effect of compounds 1–6 upon proliferation, various cell types were seeded onto clear 96-well plates at proper densities for each; CHO-K1 (2000 cells well^− 1), CHO-K1-A2AR (2000 cells well^− 1), H520 (2500 cells well^− 1), H1563 (2500 cells well^− 1), H1792 (2500 cells well^− 1), LK-2 (2500 cells well^− 1). This was done in suitable media, and they were cultured for 24 hours. After the subsequent addition of compounds 1–6 (ranging 316 nM − 100 µM), cells were allowed to grow further for 72 hours. Quantification of changes in cell number was done by adding 5 µl CCK-8 reagent to each well, accompanied by incubation at 37 °C for 1–3 hours. The determination of OD450 was done using a Mithras LB940 micro-plate reader at 450 nm.\n(§3) Data analysis was performed using GraphPad Prism 8.2.1 (San Diegeo, CA). […] As for proliferation assays, the normalization of all data was done relative to the responses obtained upon treating cells with 1 % (v/v) DMSO. Subsequently, a three-parameter logistic equation was used for fitting each set of normalized data β-galactosidase or cAMP data, in order to calculate pEC50/pIC50 and Emax values. Also, the fitting of the proliferation data was done using a three-parameter logistic equation constraining the basal value to 100 and the system maximum to the IMax value obtained for compound 2, since it elicited the maximum inhibition of cellular proliferation in all cell types tested. A one-way ANOVA with Dunnett’s post-test, or Student’s t-test was used to assess the statistical significance for all assays, where p < 0.05 was considered to be significant."}, "LK-2 cells [3]": {"tested_on": "LK-2 cells", "assay": "Proliferation assay (CCK-8) in LK-2 cells", "format": "cell-based, human", "settings": "for IC50: Homo sapiens, LK-2, 72 hours, read-out: pIC50 anti-proliferative effect (converted)", "experimental": "as §2, §3"}, "LK-2 cells [4]": {"tested_on": "LK-2 cells", "assay": "cAMP accumulation in LK-2 cells", "format": "cell-based", "settings": "Homo sapiens", "excerpt": "as §1"}, "CHO-K1 cells": {"tested_on": "CHO-K1 cells", "assay": "Proliferation assay (CCK-8) in CHO-K1 cells", "format": "cell-based", "settings": "for IC50: Cricetulus griseus, CHO-K1, 72 hours, read-out: pIC50 anti-proliferative effect (converted)", "experimental": "as §2, §3"}, "H1563 cells [5]": {"tested_on": "H1563 cells", "assay": "Proliferation assay (CCK-8) in H1563 cells", "format": "cell-based, human", "settings": "for Imax anti-proliferative effect: H1563, 10 μM agonist relative to 1% DMSO treatment; for IC50: Homo sapiens, NCI-H1563, H1563, 72 hours, read-out: pIC50 anti-proliferative effect (converted)", "experimental": "as §2, §3"}, "A3R": {"biological_target": "T2, A3R (Homo sapiens, UniProt P0DMS8)", "T2 construct": "expressed in transfected cells", "T2 sequence (P0DMS8 1-318)": "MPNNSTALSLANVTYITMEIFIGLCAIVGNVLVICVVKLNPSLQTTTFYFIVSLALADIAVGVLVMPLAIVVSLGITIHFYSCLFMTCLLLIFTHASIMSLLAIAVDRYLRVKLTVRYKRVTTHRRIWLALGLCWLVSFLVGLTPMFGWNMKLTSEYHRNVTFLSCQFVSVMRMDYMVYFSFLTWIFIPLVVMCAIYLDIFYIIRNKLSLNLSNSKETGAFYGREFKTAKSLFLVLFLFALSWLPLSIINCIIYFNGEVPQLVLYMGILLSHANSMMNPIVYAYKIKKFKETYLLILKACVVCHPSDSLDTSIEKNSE", "assay": "cAMP inhibition in CHO-K1-A3R cells co-stimulated with forskolin", "format": "cell-based"}, "CHO-K1-A2AR cells": {"tested_on": "CHO-K1-A2AR cells", "assay": "Proliferation assay (CCK-8) in CHO-K1-A2AR cells", "format": "cell-based", "settings": "for IC50: read-out: pIC50 anti-proliferative effect (converted)", "experimental": "as §2, §3"}, "H1563 cells [6]": {"tested_on": "H1563 cells", "assay": "cAMP accumulation in H1563 cells", "format": "cell-based", "settings": "Homo sapiens", "excerpt": "as §1"}, "H520 cells [7]": {"tested_on": "H520 cells", "assay": "cAMP accumulation in H520 cells", "format": "cell-based", "settings": "Homo sapiens", "excerpt": "as §1"}, "H520 cells [8]": {"tested_on": "H520 cells", "assay": "Proliferation assay (CCK-8) in H520 cells", "format": "cell-based, human", "settings": "for Imax anti-proliferative effect: H520, 10 μM agonist relative to 1% DMSO treatment; for IC50: Homo sapiens, NCI-H520, H520, 72 hours, read-out: pIC50 anti-proliferative effect (converted)", "experimental": "as §2, §3"}, "A2AR": {"tested_on": "A2AR", "parameters": "method as in ChEMBL", "settings": "confidence score equal to 9; ref ChEMBL; read-out: IC50 (A2AR antagonist); cited from earlier work"}, "Nluc-A2AR": {"biological_target": "T3, Nluc-A2AR (Homo sapiens, UniProt P29274)", "T3 construct": "expressed in transfected cells; host or cells: HEK293T", "T3 sequence (P29274 whole entry)": "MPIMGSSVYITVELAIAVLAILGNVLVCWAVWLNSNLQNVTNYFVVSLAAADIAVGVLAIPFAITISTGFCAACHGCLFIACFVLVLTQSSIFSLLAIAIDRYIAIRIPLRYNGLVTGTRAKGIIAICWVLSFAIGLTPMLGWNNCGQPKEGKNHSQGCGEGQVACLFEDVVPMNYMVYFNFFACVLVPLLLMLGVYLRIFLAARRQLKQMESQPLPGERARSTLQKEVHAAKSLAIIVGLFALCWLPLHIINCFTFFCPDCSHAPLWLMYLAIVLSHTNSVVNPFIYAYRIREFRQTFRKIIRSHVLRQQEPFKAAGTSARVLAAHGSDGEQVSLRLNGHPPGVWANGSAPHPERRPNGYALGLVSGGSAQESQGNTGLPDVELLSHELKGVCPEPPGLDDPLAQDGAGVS", "assay": "NanoBRET ligand binding assay, competition with CA200645 in HEK293T cells", "quoted_text": "We sought to validate the docking studies by quantifying the affinity of each compound at the A2AR using a NanoBRET binding assay. In this experiment, we used N-terminally tagged A2AR with Nanoluciferase (Nluc) that will emit bioluminescence in close proximity with the fluorescent probe, CA200645, in the presence of Nluc substrate. Firstly, we determine the affinity constant of CA200645 in our expression system. […] We next extended our studies to use a classical competition binding assay ([43, 44]) where non-fluorescent ligands compete for binding at the Nluc-A2AR with CA200645. […] HEK293T cells were seeded in 6-well plates at density of 10^6 cells/well and grown overnight at 37 °C in DMEM/F12 medium supplemented with 10 % FBS and 1 % antibiotic/antimycotic. […]\nFor association-dissociation kinetic experiments, following furimazine incubation, 40 nM of CA200645 (purchased from Hello Bio, Bristol, UK) was added and the plate was immediately read. […] BRET signal was recorded for either 50 minutes or 20 minutes, for kinetic experiments or competition assay as appropriate, on a Mithras LB940 plate reader allowing sequential integration of signal detected from fluorescent probe CA200645 and Nluc. […] Ligand-induced ΔBRET was used to construct the association-dissociation kinetic of the fluorescence probe and competition binding curve of unlabelled ligands. […]"}}, "data": [{"compound": "CCNC(=O)[C@H]1O[C@@H](n2cnc3c(N)nc(NCCc4ccc(CCC(=O)O)cc4)nc32)[C@H](O)[C@@H]1O", "note": "[CGS21680]", "values": [{"measurement": "activity at PDE10A", "setting": "PDE10A", "value": "no significant activity"}, {"measurement": "EC50", "setting": "H1792 cells [1]; NCI-H1792, 0.5 h, H1792, 30 minutes, read-out: pEC50 cAMP accumulation (converted)", "value": 3.02, "unit": "µM"}, {"measurement": "Emax", "setting": "H1792 cells [1]; NCI-H1792, H1792, percentage of 100 μM forskolin", "value": "27.3 ± 2.1", "unit": "%"}, {"measurement": "Imax anti-proliferative effect", "setting": "H1792 cells [2]", "value": "-4.07±1.6", "unit": "%"}, {"measurement": "IC50", "setting": "H1792 cells [2]", "value": "> 100", "unit": "µM"}, {"measurement": "IC50", "setting": "LK-2 cells [3]", "value": "> 100", "unit": "µM"}, {"measurement": "Imax anti-proliferative effect", "setting": "LK-2 cells [3]; LK-2, 10 μM agonist relative to 1% DMSO treatment", "value": "-3.55±2.6", "unit": "%"}, {"measurement": "EC50", "setting": "LK-2 cells [4]; 0.5 h, LK-2, 30 minutes, read-out: pEC50 cAMP accumulation (converted)", "value": 14.5, "unit": "µM"}, {"measurement": "Emax", "setting": "LK-2 cells [4]; LK-2, percentage of 100 μM forskolin", "value": "7.64 ± 1.6", "unit": "%"}, {"measurement": "IC50", "setting": "CHO-K1 cells", "value": "> 100", "unit": "µM"}, {"measurement": "Imax anti-proliferative effect", "setting": "H1563 cells [5]", "value": "18.87±1.8", "unit": "%"}, {"measurement": "IC50", "setting": "H1563 cells [5]", "value": 214, "unit": "µM"}, {"measurement": "A3R functional activity", "setting": "A3R", "value": "agonist activity"}, {"measurement": "IC50", "setting": "CHO-K1-A2AR cells; CHO-K1-A2AR, 72 hours", "value": "> 100", "unit": "µM"}, {"measurement": "anti-proliferative effect", "setting": "CHO-K1-A2AR cells; CHO-K1 and CHO-K1-A2AR cells, 72 hours, CCK-8", "value": "no anti-proliferative effects"}, {"measurement": "EC50", "setting": "H1563 cells [6]; NCI-H1563, 0.5 h, H1563, 30 minutes, read-out: pEC50 cAMP accumulation (converted)", "value": 4.57, "unit": "µM"}, {"measurement": "Emax", "setting": "H1563 cells [6]; NCI-H1563, H1563, percentage of 100 μM forskolin", "value": "15.6 ± 1.6", "unit": "%"}, {"measurement": "EC50", "setting": "H520 cells [7]; NCI-H520, 0.5 h, H520, 30 minutes, read-out: pEC50 cAMP accumulation (converted)", "value": 3.31, "unit": "µM"}, {"measurement": "Emax", "setting": "H520 cells [7]; NCI-H520, H520, percentage of 100 μM forskolin", "value": "20.8 ± 1", "unit": "%"}, {"measurement": "Imax anti-proliferative effect", "setting": "H520 cells [8]", "value": "0.55±2.0", "unit": "%"}, {"measurement": "IC50", "setting": "H520 cells [8]", "value": "> 100", "unit": "µM"}]}, {"compound": "COc1ccccc1Cn1cc2nc(-c3ccc(C)o3)nc(N)c2n1", "note": "[CHEMBL3799351]", "values": [{"measurement": "IC50", "setting": "A2AR", "value": 0.00435, "unit": "µM"}]}, {"compound": "C=C[C@@]1(C)CC(=O)[C@]2(O)[C@@]3(C)[C@@H](O)CCC(C)(C)[C@@H]3[C@H](O)[C@H](OC(C)=O)[C@@]2(C)O1", "note": "[Forskolin]", "values": [{"measurement": "Imax anti-proliferative effect", "setting": "H1792 cells [2]", "value": "25.9±1.0", "unit": "%"}, {"measurement": "IC50", "setting": "H1792 cells [2]", "value": 186, "unit": "µM"}, {"measurement": "IC50", "setting": "LK-2 cells [3]", "value": 324, "unit": "µM"}, {"measurement": "Imax anti-proliferative effect", "setting": "CHO-K1 cells; CHO-K1, 10 μM agonist relative to 1% DMSO treatment", "value": "62.57±3.4"}, {"measurement": "IC50", "setting": "CHO-K1 cells", "value": 34.7, "unit": "µM"}, {"measurement": "Imax anti-proliferative effect", "setting": "H1563 cells [5]", "value": "29.9±1.1", "unit": "%"}, {"measurement": "IC50", "setting": "H1563 cells [5]", "value": 148, "unit": "µM"}, {"measurement": "IC50", "setting": "CHO-K1-A2AR cells; CHO-K1-A2AR, 72 hours", "value": 37.2, "unit": "µM"}, {"measurement": "Imax anti-proliferative effect", "setting": "CHO-K1-A2AR cells; CHO-K1-A2AR, 10 μM agonist relative to 1% DMSO treatment", "value": "58.96±2.2"}, {"measurement": "Δ Imax", "setting": "CHO-K1-A2AR cells; Imax (CHO-K1-A2AR) - Imax (CHO-K1)", "value": "-3.61±4.1"}, {"measurement": "Δ pIC50", "setting": "CHO-K1-A2AR cells; pIC50(CHO-K1-A2AR) - pIC50(CHO-K1)", "value": "-0.03±0.1"}, {"measurement": "Imax anti-proliferative effect", "setting": "H520 cells [8]", "value": "31.2±2.1", "unit": "%"}, {"measurement": "IC50", "setting": "H520 cells [8]", "value": 85.1, "unit": "µM"}]}, {"compound": "CC(C)NCC(O)c1ccc(O)c(O)c1", "note": "(stereo not shown) [isoprenaline]", "values": [{"measurement": "displacement of CA200645", "setting": "Nluc-A2AR; competition with 300 nM CA200645", "value": "failed to displace CA200645"}]}, {"compound": "CA200645", "values": [{"measurement": "disassociation constant (KD) of CA200645 at the Nluc-A2AR", "setting": "Nluc-A2AR; kinetic association then dissociation, 40 nM CA200645, HEK293 cells", "value": 0.065, "unit": "µM"}]}]}
